Results on six molecules are retold here after ChEMBL document CHEMBL3046798 (J Agric Food Chem, 2010).

Values after ≈ are worked out from the molar mass of the structure shown.

The Cmax is the highest concentration seen after dosing. Usually solubility stands for the dissolved amount per volume that the medium holds. By LD50 is commonly meant the dose at which mortality reaches 50%.

Data set [1] in a line: Drug level in Cicer arietinum (chickpea) green seeds measured 90 days post dose following field application at 2 kg of active ingredient/hectare.
Data set [2] is described as follows: Drug absorption in Solanum lycopersicum (tomato) roots measured 30 days post dose following field application at 1 and 2 kg of active ingredient/hectare.
Data set [3] is described as follows: Drug level in Solanum lycopersicum (tomato) green seeds measured 90 days post dose following field application at 1 kg of active ingredient/hectare.
In data set [4] the test system is Root. The experiment in a line: Drug absorption in Solanum lycopersicum (tomato) roots assessed as mean drug level measured post dose following field application at 1 and 2 kg of active ingredient/hectare.
In data set [5] the test system is Rotylenchulus reniformis. Nature of the data set: Nematicidal activity against Rotylenchulus reniformis (reniform nematode) infested tomato plants plots assessed as reduction in nematode population measured 110 days post dose following field application at 1 to 2 kg of active ingredient/hectare. Type of data set: functional. Further details: scale not given: the % may be the effect or the level left.

Data set [6] is described as follows: Cmax in Solanum lycopersicum (tomato) shoots measured 30 days post dose following field application at 1 and 2 kg of active ingredient/hectare. To be noted: other: field application. Type of data set: ADME, Shoot.
Data set [7] is described as follows: Drug level in Solanum lycopersicum (tomato) green seeds measured 120 days post dose following field application at 2 kg of active ingredient/hectare.
Data set [8] in a line: physchem.
Data set [9] is described as follows: Drug level in Cicer arietinum (chickpea) green seeds measured 100 days post dose following field application at 2 kg of active ingredient/hectare.
Data set [10] has as its system Meloidogyne incognita. Nature of the data set: Nematicidal activity against root-knot nematode Meloidogyne incognita J2 (root-knot nematode) infested tomato plants plots assessed as reduction in nematode population measured 55 days post dose following field application at 1 to 2 kg of active ingredient/hectare. The format is functional. Further details: scale not given: the % may be the effect or the level left.

Data set [11] has as its system Rotylenchulus reniformis. The experiment in a line: Nematicidal activity against Rotylenchulus reniformis (reniform nematode) infested in tomato plants plots assessed as reduction in nematode population measured 55 days post dose following field application at 1 to 2 kg of active ingredient/hectare. Type of data set: functional. Further details: scale not given: the % may be the effect or the level left.

Data set [12] has as its system Rotylenchulus reniformis. The experiment in a line: Nematicidal activity against Rotylenchulus reniformis (reniform nematode) infested chickpea plants plots assessed as reduction in nematode population measured 110 days post dose following field application at 1 to 2 kg of active ingredient/hectare. Type of data set: functional. More on the design: scale not given: the % may be the effect or the level left.

A short description of data set [13]: Drug level in Cicer arietinum (chickpea) green seeds measured 90 days post dose following field application at 1 kg of active ingredient/hectare.
Data set [14] in a line: Drug level in Solanum lycopersicum (tomato) green seeds measured 100 days post dose following field application at 1 kg of active ingredient/hectare.
A short description of data set [15]: Drug level in Solanum lycopersicum (tomato) green seeds measured 100 days post dose following field application at 2 kg of active ingredient/hectare.
For data set [16], the system named is Meloidogyne incognita. The experiment in a line: Nematicidal activity against root-knot nematode Meloidogyne incognita J2 (root-knot nematode) infested chickpea plants plots assessed as reduction in nematode population measured 55 days post dose following field application at 1 to 2 kg of active ingredient/hectare. Type of data set: functional. Further details: scale not given: the % may be the effect or the level left.

The nature of data set [17]: Toxicity in Rattus norvegicus (rat). To be noted: in vivo.
A short description of data set [18]: Drug level in Cicer arietinum (chickpea) green seeds measured 100 days post dose following field application at 1 kg of active ingredient/hectare.
The nature of data set [19]: Drug level in Solanum lycopersicum (tomato) green seeds measured 90 days post dose following field application at 2 kg of active ingredient/hectare.
Data set [20] concerns Rotylenchulus reniformis. The experiment in a line: Nematicidal activity against Rotylenchulus reniformis (reniform nematode) infested chickpea plants plots assessed as reduction in nematode population measured 55 days post dose following field application at 1 to 2 kg of active ingredient/hectare. Type of data set: functional. Further details: scale not given: the % may be the effect or the level left.

Data set [21] concerns Meloidogyne incognita. The experiment in a line: Nematicidal activity against root-knot nematode Meloidogyne incognita J2 (root-knot nematode) infested tomato plants plots assessed as reduction in nematode population measured 110 days post dose following field application at 1 to 2 kg of active ingredient/hectare. The format is functional. Further details: scale not given: the % may be the effect or the level left.

Data set [22] in a line: Cmax in Cicer arietinum (chickpea) shoots measured 15 days post dose following field application at 1 and 2 kg of active ingredient/hectare. The format is ADME, Shoot. As to conditions: other: field application.
The test system of data set [23] is Root. Nature of the data set: Drug translocation in Solanum lycopersicum (tomato) roots assessed as mean drug level measured post dose following field application at 1 and 2 kg of active ingredient/hectare.
The nature of data set [24]: Drug level in Solanum lycopersicum (tomato) green seeds measured 120 days post dose following field application at 1 kg of active ingredient/hectare.
Data set [25] concerns Meloidogyne incognita. Nature of the data set: Nematicidal activity against root-knot nematode Meloidogyne incognita J2 (root-knot nematode) infested chickpea plants plots assessed as reduction in nematode population measured 110 days post dose following field application at 1 to 2 kg of active ingredient/hectare. More on the design: scale not given: the % may be the effect or the level left. Type of data set: functional.

The nature of data set [26]: Drug level in Cicer arietinum (chickpea) roots measured 15 days post dose following field application at 1 and 2 kg of active ingredient/hectare. The format is ADME, Root. To be noted: other: field application, read-out: Drug uptake.
The nature of data set [27]: Cmax in Cicer arietinum (chickpea) shoots measured 45 days post dose following field application at 1 and 2 kg of active ingredient/hectare. Type of data set: ADME, Shoot. As to conditions: other: field application.
A short description of data set [28]: in vivo. As to conditions: solanum lycopersicum.
Data set [29] is described as follows: Drug level in Cicer arietinum (chickpea) green seeds measured 120 days post dose following field application at 1 kg of active ingredient/hectare.
Data set [30] can be described thus: Drug level in Solanum lycopersicum (tomato) roots measured 15 days post dose following field application at 1 and 2 kg of active ingredient/hectare. Type of data set: ADME, Root. To be noted: other: field application, read-out: Drug uptake.
Data set [31] can be described thus: Drug level in Cicer arietinum (chickpea) green seeds measured 120 days post dose following field application at 2 kg of active ingredient/hectare.
A short description of data set [32]: Drug absorption in Cicer arietinum (chickpea) roots measured 45 days post dose following field application at 1 and 2 kg of active ingredient/hectare. To be noted: Root.
The nature of data set [33]: in vivo. As to conditions: cicer arietinum, Shoot.

For `CCOP(=O)(SC(C)CC)SC(C)CC` (stereo unspecified) [CADUSAFOS], the concentration at 2160 h in data set [1] (green seeds) is 16 ng/g; in data set [3] (green seeds) it was 21 ng/g; in [13] (green seeds), 9 ng/g; in [19] (green seeds) it was 40 ng/g. In data set [2] (roots, other: field application), this molecule displayed a concentration at 720 h of 3230 ng/g. Further, in data set [4], the Drug absorption stood at 2.18 µg/g. In addition, the Activity amounted to 83% in data set [5]; 57% in data set [10]; 39% in data set [11]; 45% in [12]; 66% in [16]; 49% in data set [20]. Moreover, the Activity in data set [21] was 60%; in data set [25], 79%. Moreover, the Cmax in data set [6] stood at 440 ng/g; in [22], 340 ng/g. The concentration at 2880 h in [7] turned out to be 3 ng/g; in data set [24], 2 ng/g. Also, the solubility in data set [8] (buffer) was determined as 248 µg/mL (≈ 917 µM). Also, the concentration at 2400 h in [9] (green seeds) turned out to be 5 ng/g; in data set [14], 6 ng/g; in data set [15] it was 10 ng/g; in data set [18] (green seeds) it was 3 ng/g. For the same molecule, the LD50 in [17] was 37.1 mg/kg. Further, the Drug transport in data set [23] is 0.25 µg/g.
In data set [8] (buffer), `CNC(=O)Oc1cccc2c1OC(C)(C)C2` [CARBOFURAN] came in with a solubility of 700 µg/mL (≈ 3160 µM). The same molecule gave an LD50 in [17] of 8 mg/kg.
For the molecule `CCCCN(CCCC)SN(C)C(=O)Oc1cccc2c1OC(C)(C)C2` [CARBOSULFAN], the concentration at 360 h in data set [26] was found to be 530 ng/g. Further, the Drug absorption in data set [4] worked out at 0.36 µg/g. Moreover, the Activity in [5] amounted to 59%; in data set [10], 52%; in data set [11] it was 23%; in [12] it was 23%; in [16] it was 33%; in data set [20], 37%. For the same molecule, the figures for the Activity in data set [21] and in [25] were 45% and 15%, respectively. This molecule also displayed a Cmax in data set [27] of 24800 ng/g. In [17], this molecule displayed a 50% lethal dose (LD50) of 209 mg/kg. Further, in [28] (shoots, other: field application), the highest level (Cmax at 1080 h) was 31600 ng/g. The Drug transport in data set [23] was determined as 9.52 µg/g.
Turning to `CCOP(=O)(NC(C)C)Oc1ccc(SC)c(C)c1` (stereo unspecified) [PHENAMIPHOS], the LD50 in [17] was 16 mg/kg.
As for `CCOP(=S)(OCC)SCSCC` [PHORATE], the concentration at 2160 h in data set [1] (green seeds) was found to be 56 ng/g; in [3] (green seeds), 14 ng/g; in [13] (green seeds), 20 ng/g; in data set [19] (green seeds) it was 22 ng/g. Moreover, the concentration at 360 h in data set [26] worked out at 2310 ng/g; in data set [30], 1690 ng/g. The Drug absorption in data set [4] worked out at 1.45 µg/g. Besides, the Activity is 45% in data set [5]; 45% in data set [10]; 36% in [11]; 0.9% in data set [12]; 44% in data set [16]; 28% in data set [20]. For the same molecule, the Activity in data set [21] is given as 17%; in [25], 1%. Also, the concentration at 2880 h turned out to be 4 ng/g in [7], 3 ng/g in data set [29], 6 ng/g in [31] and 3 ng/g in [24]. In [8] (water), this molecule showed a solubility of 50 µg/mL (≈ 192 µM). For the same molecule, the concentration at 2400 h in [9] (green seeds) stood at 19 ng/g; in data set [14] it was 10 ng/g; in data set [15], 14 ng/g; in data set [18] (green seeds), 8 ng/g. For the same molecule, the Cmax in data set [27] came to 680 ng/g. The molecule also had an LD50 in [17] of 3.2 mg/kg. Also, the Drug transport in data set [23] came out at 0.41 µg/g.
As for `CCOP(=S)(OCC)Oc1ncn(-c2ccccc2)n1` [TRIAZOPHOS], the concentration at 2160 h amounted to 18 ng/g in data set [1], 2 ng/g in data set [3], 11 ng/g in [13] and 4 ng/g in [19]. Also, the concentration at 720 h in [2] (Root) was found to be 7220 ng/g. In addition, the Drug absorption in [4] (Root) stood at 2.77 µg/g. Also, the Activity was determined as 31% in data set [5]; 55% in data set [10]; 30% in data set [11]; 30% in [12]; 63% in data set [16]; 38% in data set [20]. Also, the Activity is recorded as 38% in data set [21] and 44% in data set [25]. Also, in [8] (buffer), the concentration in solution (solubility) was 30 µg/mL (≈ 95.7 µM). Further, the concentration at 2400 h came out at 7 ng/g in data set [9] and 4 ng/g in data set [18]. Also, the LD50 in data set [17] turned out to be 68 mg/kg. Also, the concentration at 1080 h in data set [32] was 1720 ng/g. For the same molecule, the Cmax at 1080 h in data set [28] (Shoot) amounted to 630 ng/g. In addition, in data set [23] (Root), the Drug transport was found to be 0.14 µg/g. The molecule further came in with a peak concentration (Cmax) at 720 h in [33] of 250 ng/g.
